Source: ChEMBL document CHEMBL4138123, “Design, synthesis and biological evaluation of novel pyrazolochalcones as potential modulators of PI3K/Akt/mTOR pathway and inducers of apoptosis in breast cancer cells” (Eur J Med Chem, 2017)
Calls of active or inactive are those of the source. The rule behind the calls is not given here.

Experiments:
MCF7 [1] = assay: Induction of apoptosis in human MCF7 cells assessed as early apoptotic cells at 2 uM after 24 hrs by Annexin-V FITC/propidium iodide staining-based FACS analysis (reference value: 0.5%); assay type: functional
MCF7 [2] = assay: Cell cycle arrest in human MCF7 cells assessed as accumulation at G2/M phase at 2 uM after 24 hrs by flow cytometric analysis (reference value: 2.35%); assay type: functional
MCF7 [3] = assay: Inhibition of PI3K in human MCF7 cells assessed as increase in GSK-3beta phosphorylation at Ser9 at 2 uM after 24 hrs by Western blot analysis; assay type: cell-based
MCF7 [4] = assay: Upregulation of PTEN protein expression in human MCF7 cells at 2 uM after 24 hrs by Western blot analysis; assay type: functional, cell-based
MCF7 [5] = assay: Downregulation of PI3K protein expression in human MCF7 cells at 2 uM after 24 hrs by Western blot analysis; assay type: functional, cell-based
MCF7 [6] = assay: Downregulation of Bcl-2 mRNA expression in human MCF7 cells at 2 uM after 48 hrs by qRT-PCR analysis; assay type: functional, cell-based
MCF7 [7] = assay: Cell cycle arrest in human MCF7 cells assessed as accumulation at G0/G1 phase at 2 uM after 48 hrs by flow cytometric analysis (reference value: 34.2%); assay type: functional
MCF7 [8] = assay: Induction of apoptosis in human MCF7 cells assessed as viable cells at 2 uM after 24 hrs by Annexin-V FITC/propidium iodide staining-based FACS analysis (reference value: 93.9%); assay type: functional; conditions: MCF7, 24 h, read-out: Activity
MCF7 [9] = assay: Downregulation of Akt protein expression in human MCF7 cells at 2 uM after 24 hrs by Western blot analysis; assay type: functional, cell-based
MCF7 [10] = assay: Upregulation of BAX mRNA expression in human MCF7 cells at 2 uM after 48 hrs by qRT-PCR analysis; assay type: functional, cell-based
MCF7 [11] = assay: Cell cycle arrest in human MCF7 cells assessed as accumulation at S phase at 2 uM after 24 hrs by flow cytometric analysis (reference value: 79.1%); assay type: functional
MCF7 [12] = assay: Induction of intrinsic apoptosis in human MCF7 cells assessed as effect on mitochondrial membrane depolarization at 2 uM after 5 hrs by DiOC6 staining-based FACS analysis relative to control; assay type: functional
MCF7 [13] = assay: Induction of intrinsic apoptosis in human MCF7 cells assessed as effect on mitochondrial membrane depolarization at 2 uM after 18 hrs by DiOC6 staining-based FACS analysis (reference value: 2%); assay type: functional
MCF7 [14] = assay: Induction of apoptosis in human MCF7 cells assessed as late apoptotic cells at 2 uM after 24 hrs by Annexin-V FITC/propidium iodide staining-based FACS analysis (reference value: 5.4%); assay type: functional
MCF7 [15] = assay: Upregulation of TP53 mRNA expression in human MCF7 cells at 2 uM after 48 hrs by qRT-PCR analysis; assay type: functional, cell-based
MCF7 [16] = assay: Induction of apoptosis in human MCF7 cells assessed as necrotic cells at 2 uM after 24 hrs by Annexin-V FITC/propidium iodide staining-based FACS analysis (reference value: 0.2%); assay type: functional
MCF7 [17] = assay: Cell cycle arrest in human MCF7 cells assessed as accumulation at G0/G1 phase at 2 uM after 24 hrs by flow cytometric analysis (reference value: 18.4%); assay type: functional
MCF7 [18] = assay: Upregulation of PTEN mRNA expression in human MCF7 cells at 2 uM after 48 hrs by qRT-PCR analysis; assay type: functional, cell-based

SMILES | Activity (MCF7 [1]) [%] | Activity (MCF7 [2]) [%] | Activity call (increase in GSK-3beta Ser9 phosphorylation) (MCF7 [3]) | Activity (MCF7 [4]) | Activity (MCF7 [5]) | Activity (MCF7 [6]) | Activity (MCF7 [7]) [%] | viability at 2 µM (MCF7 [8]) [%] | Activity (MCF7 [9]) | Activity (MCF7 [10]) | Activity (MCF7 [11]) [%] | Activity (MCF7 [12]) [%] | Activity (MCF7 [13]) [%] | Activity (MCF7 [14]) [%] | Activity (MCF7 [15]) | Activity (MCF7 [16]) [%] | Activity (MCF7 [17]) [%] | Activity (MCF7 [18])
COc1cc(C(=O)/C=C/c2cc(-c3ccc4c(c3)OCO4)n[nH]2)cc(OC)c1OC | 0.7 | 64.6 | Active | Active | Active | Active | 39 | 89.2 | Active | Active | 0 | 3.4 | 26 | 8.4 | Active | 0.1 | 35.4 | Active
COc1ccc(C(=O)/C=C/c2cc(-c3cc(OC)c(OC)c(OC)c3)n[nH]2)cc1 | – | – | Active | Active | Active | Active | – | – | Active | Active | – | – | – | – | Active | – | – | Active
COc1ccc(-c2cc(/C=C/C(=O)c3ccc(OC)c(OC)c3)[nH]n2)cc1 | 1.1 | 18.6 | Active | Active | Active | Active | 44.6 | 93.8 | Active | Active | 66.1 | – | 26 | 4.4 | Active | 0.7 | 15.3 | Active
COc1ccc(C(=O)/C=C/c2cc(-c3cc(OC)c(OC)c(OC)c3)n[nH]2)cc1OC | 1.4 | 39.9 | Active | Active | Active | Active | 43.9 | 94.3 | Active | Active | 29.3 | – | 42 | 4.2 | Active | 0.1 | 30.8 | Active
COc1cc(C(=O)/C=C/c2cc(-c3cc(OC)c(OC)c(OC)c3)n[nH]2)cc(OC)c1OC | 3.1 | 10.3 | Active | Active | Active | Active | 62 | 84.6 | Active | Active | 73.1 | – | 1 | 11.2 | Active | 1.1 | 16.6 | Active
